{"source": "patent US7141596B2", "about": "“Inhibitors of proteins that bind phosphorylated molecules” (Incyte Corporation, priority 2003, dated 2006)", "target": "T1, human PTP1B catalytic domain (residues 1–298) (Homo sapiens, UniProt P18031)", "T1 construct": "The catalytic domain (residues 1–298) of human PTP1B; His tag (N); made in house; host or cells: E. coli", "T1 sequence (P18031 1-298)": "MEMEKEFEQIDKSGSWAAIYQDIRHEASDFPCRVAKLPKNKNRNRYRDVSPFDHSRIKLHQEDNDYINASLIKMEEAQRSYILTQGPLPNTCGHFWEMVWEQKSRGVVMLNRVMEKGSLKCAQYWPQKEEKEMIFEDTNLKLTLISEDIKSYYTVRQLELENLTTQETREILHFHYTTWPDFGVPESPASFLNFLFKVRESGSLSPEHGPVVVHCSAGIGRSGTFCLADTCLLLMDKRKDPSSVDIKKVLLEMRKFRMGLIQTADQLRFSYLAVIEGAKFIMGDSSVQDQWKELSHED", "test": "hPTP1B in vitro activity assay (pNPP dephosphorylation)", "assay_type": "biochemical", "conditions": "Isomer 1 compared with Isomer 2 (5S/5R diastereomers separated by chiral HPLC)", "description": "Compounds were serially diluted in DMSO and spotted into the assay plate. Both the enzyme and substrate were diluted into the assay buffer containing 25 mM tris-bis-propone (pH 7.0 @ rt) and 0.1 mg/ml of BSA. 40 of μL enzyme solution was added to the assay plate containing compounds and was incubated for 30 minutes. 40 μL of substrate solution was then added to the assay plate to initiate the reaction. The initial reaction rates of the dephosphorylation of p-nitrophenylphosphate to p-nitrophenol are measured by monitoring absorbance at 410 nm on a SpectraMax for 15–30 min.", "data": [{"smiles": "O=C(O)C(F)(F)F.O=C(O)C(F)(F)F.O=C1C[C@@H](c2ccc(C[C@H](Nc3nc4cc(F)ccc4s3)c3nc4ccccc4[nH]3)cc2)S(=O)(=O)N1.O=C1C[C@H](c2ccc(C[C@H](Nc3nc4cc(F)ccc4s3)c3nc4ccccc4[nH]3)cc2)S(=O)(=O)N1", "note": "(single isomer, unassigned; isomer 1) [4.179 Isomer 1]", "values": [{"measurement": "relative biological activity of the separated diastereomers in the enzyme assay", "result": "more biologically active"}]}]}
